Results reported in PubChem BioAssay AID1963873 (Molecular Pharmacology Branch, DTP, NCI, 2024).

System: 276233-004-R-J1-PDC KRAS spheroids with HUVEC/MSC, viability
Assay: Anticancer human tumor 276233-004-R-J1-PDC patient-derived colon adenocarcinoma cell line growth inhibition [KRAS2]
Details: for viability, T/C: stronger effect = lower value; active means viability on the fitted dose curve at most 10% of control; inactive means the rest
Description: Multicellular complex tumor spheroid response to RAS pathway inhibitors in combination with a targeted agents in patient-derived cell lines with oncogenic KRAS variants from multiple cancer types
A high-throughput screen of multi-cell type tumor spheroids was designed to identify active combinations of targeted small molecules and KRAS pathway inhibitors. Complex spheroids include a stromal component modeled by human endothelial cells (HUVEC) and fibroblasts modeled by human mesenchymal stem cells (MSCs). The concentration ranges selected for each drug and investigational agent were based upon clinically achievable concentrations if the clinical Cmax of the agent was known.
Compounds. The drugs and investigational agents: BI-3406 (NSC825286), BAY-293 (NSC824723), batoprotafib (TNO155; NSC825523), sotorasib (AMG 510; NSC818433), MRTX1257 (NSC819558), elimusertib (BAY 1895344; NSC800525), molibresib (GSK525762; NSC774829), temuterkib (LY3214996; NSC803410), venetoclax (NSC766270), alisertib (NSC759677), olaparib (NSC753686), talazoparib (NSC767125), erdafitinib (NSC781556), ipatasertib (NSC767898), cabozantinib (NSC761068), nintedanib (NSC756659), abemaciclib (NSC768073), docetaxel (NSC628503), trametinib (NSC758246), and sapanisertib (NSC764658) were obtained from the National Cancer Institute (NCI) Developmental Therapeutics Program Chemical Repository. The FDA-approved anticancer drug set is available from the Developmental Therapeutics Program. […] The stock solutions were prepared in dimethyl sulfoxide (DMSO, Sigma-Aldrich, St. Louis, MO, cat. D2650) at 800-fold the tested concentration and stored at -70 degrees C prior to their use. All drugs and investigational agents were tested over a range starting from a high concentration at or near the clinical Cmax and decreasing in half-log increments. If the clinical Cmax for an agent had not been determined, the highest concentration tested was 10 microM.
Cell Culture. All cells were maintained in an incubator at 37 degrees C and 5% CO2 with 95% humidity. The PDC lines were cultured according to standard operating procedures established by the NCI PDMR (https://pdmr.cancer.gov/sops/default.htm). Briefly, all PDCs were thawed and cultured in Matrigel-coated flasks prepared with a working solution of 1X Ham's F-12 nutrient mix, without supplementation (Invitrogen, Waltham, MA, cat. 11765054), 100 U/mL penicillin-streptomycin (Invitrogen, cat. 15140122), and 2.5% Matrigel (Corning Inc., Corning, NY, cat. 354248) for the first three passages. All PDCs were cultured in complete DMEM/F-12 media containing advanced DMEM/F-12 (Invitrogen, cat. 12634028), 4.9% defined fetal bovine serum, heat inactivated (HyClone Laboratories Inc., Logan, UT, cat. SH30070.03HI), 389 ng/mL hydrocortisone (Sigma-Aldrich, cat. H4001), 9.7 ng/mL human EGF recombinant protein (Invitrogen, cat. PHG0313), 23.4 microg/mL adenine (Sigma-Aldrich, cat. A2786), 97.3 U/mL penicillin-streptomycin (Invitrogen, cat. 15140122), 1.9 mM L-glutamine (Invitrogen, cat. 25030081), and 9.7 microM Y-27632 dihydrochloride (Tocris Bioscience, Bristol, United Kingdom, cat. 1254). The PDCs were cultured in complete DMEM/F12 media without 9.7 microM Y-27632 dihydrochloride for at least two passages prior to the screen. The established cell line HOP-62 was cultured in RPMI 1640 medium, HEPES (Invitrogen, cat. 22400105) with 10% defined fetal bovine serum (HyClone Laboratories Inc., cat. SH30070.03) and 2 mM L-glutamine (Invitrogen, cat. 25030081). The pooled donor HUVEC were cultured in endothelial cell growth medium 2 (PromoCell, Heidelberg, Germany, cat. C-22011) and the hMSC were cultured in mesenchymal stem cell growth medium 2 (PromoCell, cat. C-28009). For all experiments, HUVEC and hMSC were used at passages </=5, while the malignant cell lines were used at passages </=15. […]

[1] = curve of first compound, second compound 0.1 µM
[2] = curve of first compound, second compound 0.316 µM
[3] = curve of first compound, second compound 1 µM
[4] = curve of first compound, second compound 3.16 µM
[5] = second compound 0.1 µM, first compound 0.0316 µM
[6] = second compound 0.1 µM, first compound 0.1 µM
[7] = second compound 0.1 µM, first compound 0.316 µM
[8] = second compound 0.1 µM, first compound 1 µM
[9] = second compound 0.1 µM, first compound 3.16 µM
[10] = second compound 0.1 µM, first compound 10 µM
[11] = second compound 0.316 µM, first compound 0.0316 µM
[12] = second compound 0.316 µM, first compound 0.1 µM
[13] = second compound 0.316 µM, first compound 0.316 µM
[14] = second compound 0.316 µM, first compound 1 µM
[15] = second compound 0.316 µM, first compound 3.16 µM
[16] = second compound 0.316 µM, first compound 10 µM
[17] = second compound 1 µM, first compound 0.0316 µM
[18] = second compound 1 µM, first compound 0.1 µM
[19] = second compound 1 µM, first compound 0.316 µM
[20] = second compound 1 µM, first compound 1 µM
[21] = second compound 1 µM, first compound 3.16 µM
[22] = second compound 1 µM, first compound 10 µM
[23] = second compound 3.16 µM, first compound 0.0316 µM
[24] = second compound 3.16 µM, first compound 0.1 µM
[25] = second compound 3.16 µM, first compound 0.316 µM
[26] = second compound 3.16 µM, first compound 1 µM
[27] = second compound 3.16 µM, first compound 3.16 µM
[28] = second compound 3.16 µM, first compound 10 µM
[29] = curve of first compound, second compound 10 µM
[30] = second compound 10 µM, first compound 0.0316 µM
[31] = second compound 10 µM, first compound 0.1 µM
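Further: cells exposed to agents for seven days before viability read.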
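Wherever viability, T/C is given: 100% = DMSO vehicle control wells and lower values mean fewer viable cells.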

COC(=O)c1ccc2c(C(=Nc3ccc(N(C)C(=O)CN4CCN(C)CC4)cc3)c3ccccc3)c(O)[nH]c2c1 + C=CC(=O)N1CCN(c2nc(OCC3CCCN3C)nc3c2CCN(c2cccc4cccc(C)c24)C3)CC1CC#N
> 10000 nM: IC50 (curve of first compound, second compound 0.0316 µM) | IC50 [1] | IC50 [2] | IC50 [3]
active: viability, T/C [28] 3.45%
inactive: viability, T/C (second compound 0.0316 µM, first compound 0.0316 µM) 86.4% | viability, T/C (second compound 0.0316 µM, first compound 0.1 µM) 95.1% | viability, T/C (second compound 0.0316 µM, first compound 0.316 µM) 77.5% | viability, T/C (second compound 0.0316 µM, first compound 1 µM) 83.6% | viability, T/C (second compound 0.0316 µM, first compound 3.16 µM) 81.8% | viability, T/C (second compound 0.0316 µM, first compound 10 µM) 93.2% | viability, T/C [5] 77.4% | viability, T/C [6] 65.8% | viability, T/C [7] 59.2% | viability, T/C [8] 71.7% | viability, T/C [9] 89.7% | viability, T/C [10] 64% | viability, T/C [11] 83.6% | viability, T/C [12] 87.5% | viability, T/C [13] 76.2% | viability, T/C [14] 77.1% | viability, T/C [15] 78.6% | viability, T/C [16] 70% | viability, T/C [17] 88% | viability, T/C [18] 78.8% | viability, T/C [19] 69.8% | viability, T/C [20] 62.1% | viability, T/C [21] 69.1% | viability, T/C [22] 65.7% | viability, T/C [23] 39.6% | viability, T/C [24] 46.6% | viability, T/C [25] 34.4% | viability, T/C [26] 26.9% | viability, T/C [27] 18.7%
< 31.6 nM: IC50 [4]

C=CC(=O)N1CCN(c2nc(=O)n(-c3c(C)ccnc3C(C)C)c3nc(-c4c(O)cccc4F)c(F)cc23)C(C)C1 (stereo not given)
> 10000 nM: IC50 (compound alone, run of 07/12/2021) | IC50 (compound alone, run of 07/19/2021) | IC50 (compound alone, run of 07/26/2021)

COc1cc(OC)cc(N(CCNC(C)C)c2ccc3ncc(-c4cnn(C)c4)nc3c2)c1
inactive: viability, T/C (compound 0.0316 µM) 76.3% [middle of 5 runs] | viability, T/C (compound 0.1 µM) 67.4% [middle of 5 runs] | viability, T/C (compound 0.316 µM) 67% [middle of 5 runs]

Cn1nccc1Nc1nccc(-c2cc3c(s2)C(C)(C)N(CCN2CCOCC2)C3=O)n1 + COc1cc2nc(C)nc(NC(C)c3cc(N)cc(C(F)(F)F)c3)c2cc1OC1CCOC1
< 31.6 nM: IC50 [29]
1850 nM: IC50 [3]
1720 nM: IC50 [1]
2720 nM: IC50 [4]
inactive: viability, T/C [5] 87.1% | viability, T/C [6] 97.3% | viability, T/C [7] 76.2% | viability, T/C [8] 59.4% | viability, T/C [9] 40.8% | viability, T/C [10] 33.8% | viability, T/C [11] 89.2% | viability, T/C [12] 91.4% | viability, T/C [13] 79.3% | viability, T/C [14] 60% | viability, T/C [15] 42.9% | viability, T/C [16] 41% | viability, T/C [17] 99.7% | viability, T/C [18] 96% | viability, T/C [19] 75.5% | viability, T/C [20] 60.5% | viability, T/C [21] 35.9% | viability, T/C [22] 48.4% | viability, T/C [23] 107% | viability, T/C [24] 74% | viability, T/C [25] 77.9% | viability, T/C [26] 56.1% | viability, T/C [27] 42.4% | viability, T/C [28] 47.2% | viability, T/C [30] 39.3% | viability, T/C [31] 41.3% | viability, T/C (second compound 10 µM, first compound 0.316 µM) 34.7% | viability, T/C (second compound 10 µM, first compound 1 µM) 27.6% | viability, T/C (second compound 10 µM, first compound 3.16 µM) 15.2%
2010 nM: IC50 [2]
active: viability, T/C (second compound 10 µM, first compound 10 µM) 4.25%

O=C(c1cc(Cc2n[nH]c(=O)c3ccccc23)ccc1F)N1CCN(C(=O)C2CC2)CC1
inactive: viability, T/C (compound 0.1 µM) 91.9% [middle of 5 runs] | viability, T/C (compound 0.316 µM) 84.4% [middle of 5 runs] | viability, T/C (compound 1 µM) 89.5% [middle of 5 runs]
> 10000 nM: IC50 (curve of compound)

Cn1ncnc1[C@H]1c2n[nH]c(=O)c3cc(F)cc(c23)N[C@@H]1c1ccc(F)cc1 + CNCc1ccccc1-c1csc(C(C)Nc2nc(C)nc3cc(OC)c(OC)cc23)c1
< 0.316 nM: IC50 [4] | IC50 [29]
> 100 nM: IC50 [1] | IC50 [2] | IC50 [3]
inactive: viability, T/C (second compound 0.1 µM, first compound 0.000316 µM) 113% | viability, T/C (second compound 0.1 µM, first compound 0.001 µM) 115% | viability, T/C (second compound 0.1 µM, first compound 0.00316 µM) 98.2% | viability, T/C (second compound 0.1 µM, first compound 0.01 µM) 107% | viability, T/C [5] 87.6% | viability, T/C [6] 120% | viability, T/C (second compound 0.316 µM, first compound 0.000316 µM) 96.1% | viability, T/C (second compound 0.316 µM, first compound 0.001 µM) 119% | viability, T/C (second compound 0.316 µM, first compound 0.00316 µM) 116% | viability, T/C (second compound 0.316 µM, first compound 0.01 µM) 124% | viability, T/C [11] 83.2% | viability, T/C [12] 98.5% | viability, T/C (second compound 1 µM, first compound 0.000316 µM) 56.7% | viability, T/C (second compound 1 µM, first compound 0.001 µM) 69.5% | viability, T/C (second compound 1 µM, first compound 0.00316 µM) 75.1% | viability, T/C (second compound 1 µM, first compound 0.01 µM) 68.2% | viability, T/C [17] 50.2% | viability, T/C [18] 78%
active: viability, T/C (second compound 3.16 µM, first compound 0.000316 µM) 9.27% | viability, T/C (second compound 3.16 µM, first compound 0.001 µM) 0.64% | viability, T/C (second compound 3.16 µM, first compound 0.00316 µM) 0.7% | viability, T/C (second compound 3.16 µM, first compound 0.01 µM) 0.62% | viability, T/C [23] 0.53% | viability, T/C [24] 0.74% | viability, T/C (second compound 10 µM, first compound 0.000316 µM) 0.22% | viability, T/C (second compound 10 µM, first compound 0.001 µM) 0.22% | viability, T/C (second compound 10 µM, first compound 0.00316 µM) 0.22% | viability, T/C (second compound 10 µM, first compound 0.01 µM) 0.2% | viability, T/C [30] 0.18% | viability, T/C [31] 2.9%
